Results reported in ChEMBL document CHEMBL1201862, “PubChem BioAssay data set” (2004).
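Five concentrations, 48 hours, 96-well plates. GI50 is the concentration that inhibits growth by half.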 Active and inactive are the calls of the source. Rule as the data show it: active = GI50 up to about 1.1 µM and inactive = higher. Residues, ends and D or L forms follow the SMILES beside them. *: point of attachment. Cbz = O=C(OCc1ccccc1)*

Tests used:
Test in all cases: NCI anticancer screen, dose series, 48 h
[1] = tested on: MDA-MB-231
[2] = tested on: RXF 393
[3] = tested on: U-251
[4] = tested on: M14
[5] = tested on: HCT-116
[6] = tested on: SF-268
[7] = tested on: UACC-62
[8] = tested on: SW-620
[9] = tested on: HOP-62
[10] = tested on: CCRF-CEM
[11] = tested on: HCC 2998
[12] = tested on: KM12
[13] = tested on: OVCAR-8
[14] = tested on: SF-539
[15] = tested on: SF-295
[16] = tested on: CAKI-1
[17] = tested on: NCI-H522
[18] = tested on: ACHN
[19] = tested on: SK-MEL-2
[20] = tested on: A498

Measured: GI50

CC(Cc1ccccc1)N(C)Cc1nc(C2CCC([N+](=O)[O-])O2)no1 (configuration not stated)
inactive: [1] 2.47 µM | [2] 19 µM | [3] 10.2 µM | [4] 6 µM | [5] 7.29 µM | [6] 28.1 µM | [7] 5.96 µM | [8] 3.1 µM | [9] 7.43 µM | [10] 12.2 µM | [11] 4.17 µM | [12] 4.55 µM | [13] 12.7 µM | [14] 3.32 µM | [15] 8.79 µM

O=C1CCCC/C1=C\c1ccc(Br)cc1
inactive: [1] 16.8 µM | [16] 17 µM | [3] 2.99 µM | [4] 12.4 µM | [5] 17.3 µM | [6] 18.5 µM | [17] 14.8 µM | [7] 6.61 µM | [8] > 100 µM | [9] 20.7 µM | [10] 12.6 µM | [11] 23.2 µM | [18] 2.75 µM | [12] 2.42 µM | [13] 15.7 µM | [14] 19.9 µM | [15] 21.1 µM | [19] 22.6 µM

COC(=O)[C@H](Cc1c[nH]c2ccccc12)NC(=O)OCC1OC(n2cc(C)c(=O)[nH]c2=O)CC1N=[N+]=[N-] (some centres not stated)
inactive: [1] > 100 µM | [16] > 100 µM | [2] > 100 µM | [3] > 100 µM | [4] > 100 µM | [5] > 100 µM | [6] > 100 µM | [17] > 100 µM | [7] 61.5 µM | [8] > 100 µM | [9] > 100 µM | [10] 93.3 µM | [11] > 100 µM | [18] > 100 µM | [12] > 100 µM | [13] > 100 µM | [15] > 100 µM | [19] > 100 µM

CCN(CC)CCNc1c(OC)cc(C)c2sc3ccccc3c(=O)c12
inactive: [1] 2.74 µM | [16] 7.96 µM | [2] 10.1 µM | [3] 4.34 µM | [4] 3.71 µM | [5] 4.66 µM | [6] 11 µM | [17] 5.33 µM | [7] 1.79 µM | [8] 5.35 µM | [9] 10.8 µM | [18] 4.46 µM | [12] 5.41 µM | [13] 7.82 µM | [14] 10.6 µM | [15] 3.85 µM | [19] 12.6 µM

Cc1nn(C(=O)c2ccc(Cl)cc2)c2c1C(c1cccc([N+](=O)[O-])c1)SC(=N)N2 (configuration not stated)
inactive: [1] > 10 µM | [16] > 10 µM | [2] > 10 µM | [3] > 10 µM | [4] > 10 µM | [5] > 10 µM | [6] > 10 µM | [17] > 10 µM | [7] > 10 µM | [8] > 10 µM | [9] > 10 µM | [10] > 10 µM | [11] > 10 µM | [18] > 10 µM | [12] > 10 µM | [13] > 10 µM | [14] > 10 µM | [15] > 10 µM | [19] > 10 µM

CNC(=S)Nc1ccc(OC)c2ccccc12
inactive: [1] > 10 µM | [16] > 10 µM | [3] > 10 µM | [4] > 10 µM | [5] > 10 µM | [6] > 10 µM | [17] > 10 µM | [7] > 10 µM | [8] > 10 µM | [9] > 10 µM | [10] > 10 µM | [11] > 10 µM | [18] > 10 µM | [12] > 10 µM | [13] > 10 µM | [14] > 10 µM | [15] 2.04 µM

CC(NC(=O)C(NC(=O)OCc1ccccc1)C(C)C)C(=O)NCC(=O)O (stereo not drawn) (Cbz-Val-Ala-Gly-OH; configuration not given here)
inactive: [1] > 100 µM | [16] > 100 µM | [2] > 100 µM | [3] > 100 µM | [4] > 100 µM | [5] > 100 µM | [6] > 100 µM | [17] > 100 µM | [7] > 100 µM | [8] > 100 µM | [9] > 100 µM | [11] > 100 µM | [18] > 100 µM | [12] > 100 µM | [13] > 100 µM | [14] > 100 µM | [15] > 100 µM | [19] > 100 µM

N=C(N)c1ccc(/N=N/c2c(O)ccc3cc(O)ccc23)cc1
inactive: [1] > 100 µM | [16] > 100 µM | [2] > 100 µM | [3] > 100 µM | [4] > 100 µM | [5] > 100 µM | [6] > 100 µM | [17] > 100 µM | [7] > 100 µM | [8] > 100 µM | [9] > 100 µM | [10] > 100 µM | [11] > 100 µM | [18] > 100 µM | [12] > 100 µM | [13] > 100 µM | [14] > 100 µM | [15] > 100 µM | [19] > 100 µM

CCN(CC)CCOc1ccc(/C=C(\C#N)c2ccc(OCCN(CC)CC)cc2)cc1
inactive: [16] > 43.7 µM | [2] 12.4 µM | [3] 13.5 µM | [4] 7.64 µM | [20] 16.9 µM | [5] 5.87 µM | [6] 19.1 µM | [17] 11.3 µM | [7] 16.6 µM | [8] 15.3 µM | [9] 10.6 µM | [10] 3.44 µM | [11] 15.7 µM | [18] 27.3 µM | [12] 10.7 µM | [13] 20.5 µM | [14] 7.64 µM | [15] 13.4 µM | [19] 21.4 µM

COc1ccc(/C=C2/CCS(=O)(=O)c3ccc(C)cc3C2=O)cc1OC
inactive: [1] 12.8 µM | [16] 17.2 µM | [2] 12.9 µM | [3] 12.8 µM | [4] 17.2 µM | [5] 10.2 µM | [6] 20.5 µM | [7] 5.97 µM | [8] 22.8 µM | [9] 28.9 µM | [10] 8.75 µM | [11] 6.47 µM | [18] 12.9 µM | [12] 11 µM | [13] 12.3 µM | [14] 14.6 µM | [15] 14.7 µM | [19] 20 µM

CS(=O)(=O)N(CCC#N)c1ccc(/C=N/NC(=O)CC(=O)Nc2cccc(Cl)c2)cc1
inactive: [16] > 100 µM | [2] > 100 µM | [3] > 100 µM | [4] > 100 µM | [20] > 100 µM | [5] > 100 µM | [6] > 100 µM | [17] > 100 µM | [7] > 100 µM | [8] > 100 µM | [9] > 100 µM | [10] > 100 µM | [11] > 100 µM | [18] > 100 µM | [12] > 100 µM | [13] > 100 µM | [14] > 100 µM | [15] > 100 µM | [19] > 100 µM
